Read-outs that look alike come from different tables or passages of the source.
What was measured:
[1] = dogs, cited from earlier work
[2] = test system: multidrug-resistant cells overexpressing P-gp or MRP, cells with downregulation of topoisomerase II levels; set-up: method as in Di Nicolantonio et al, 2002; conditions: cells overexpressing P-gp or MRP or with downregulated topoisomerase II; ref Di Nicolantonio et al, 2002; cited from earlier work
[3] = test system: human colon and small-cell lung cancer xenografts; set-up: method as in Mistry et al, 2002; Lewis et al, 2003; conditions: ref Mistry et al, 2002, Lewis et al, 2003; cited from earlier work
[4] = Plasma pharmacokinetics in patients (LC-MS, noncompartmental analysis); assay type: in vivo, human; conditions: for AUC(0-inf) / AUC(0-t) / Cmax / Tmax / half-life: plasma, oral
Description: For PK analysis, 58 blood samples (∼5 ml each) were obtained from an indwelling intravenous cannula and collected in vials containing lithium heparin as anticoagulant. The samples were taken immediately before dosing, 30 min and 1, 1.5, 2, 3, 4, 6, 8 and 10 h after administration of the drug on days 1 and 4 (or 5) of the first and second courses. Additional samples were taken immediately prior to dosing on days 2, 3, 4 and 5, and 24, 48, 72, 144 and 312 h after the dose administration on day 5, both in the first and second cycles. From the third cycle onwards, PK samples were taken prior to dosing on day 5 to measure the potential accumulation of XR11576.
All samples were centrifuged immediately after sampling at 3000 r.p.m. for 10 min at 4°C and the plasma was stored at −20°C or lower in polypropylene tubes in the dark until analysis. A total of four urine samples were also collected over a 24-h period; 0–4, 4–8, 8–12 and 12–24 h post-dosing on day 1 of the first cycle only. Of the total amount collected, a measured quantity of 10 ml was drawn off and stored at −80°C until analysis. Concentrations of XR11576 in plasma were determined according to a validated liquid chromatography-mass spectrometry detection method with liquid–liquid extraction at the Drug Metabolism and Pharmacokinetics Department of Quintiles Limited (Internal Report at Quintiles). The lower limit of quantitation was 5 ng ml^−1.
The apparent terminal half-life (T1/2(z)) of XR11576 was calculated as ln 2/k, where k is the terminal elimination rate constant (expressed in h^−1). The peak plasma concentrations (Cmax) and the time to peak plasma concentration (Tmax) were determined from the experimental values. The areas under the plasma concentration–time curve (AUC) of XR11576 were estimated using the experimental values (trapezoidal rule) with extrapolation to infinity (AUC0–∞) using the apparent terminal rate constant, defined as the slope of the final three to four data points of the log-linear concentration–time plot. The total body clearance (CL) was calculated as the ratio between the administered dose and the AUC0–∞. The extent of accumulation (R0) in plasma was calculated from AUC0–24 h (days 4 or 5)/AUC0–24 h (day 1). The fraction of the administered dose (Fe) excreted in urine and the cumulative amount of XR11576 excreted in urine (Ae) was determined. PK data analysis was carried out using a noncompartmental analysis approach with the aid of WinNonlin Version Pron4.0.1 (Pharsight, Cary NC 27511).
A nonlinear power model was used to assess dose proportionality separately for each day during cycles 1 and 2. Statistical analyses were performed using SAS version 8.1.

rats = conditions: 14-day oral administration schedule; cited from earlier work
[5] = rats; cited from earlier work
dogs = conditions: cited from earlier work
[6] = set-up: method as in data on file, FPD 1055; conditions: ref data on file, FPD 1055; cited from earlier work
advanced solid tumours = assay: Tumour evaluation according to RECIST; assay type: in vivo, human
Description: Before treatment, a complete medical history was recorded and a physical examination performed. A complete blood count (CBC) including white blood cell differential and serum biochemistry, which involved sodium, potassium, calcium, urea, creatinine, uric acid, total protein, albumin, total bilirubin, alkaline phosphatase, γ-glutamyl transferase, aspartate aminotransferase, alanine aminotransferase, lactate dehydrogenase and glucose, were performed, as were urinalysis, pregnancy test, relevant tumour markers, electrocardiogram and a chest X-ray. The electrocardiogram was also performed 2 and 24 h after the first drug administration in the first and second cycles. Weekly evaluations included history, physical examination, toxicity assessment according to the CTC criteria version 2.0, and serum chemistries. Complete blood count was determined twice weekly. Tumour evaluation was performed after every two courses according to the Response Evaluation Criteria in Solid Tumours (RECIST) ([Therasse et al, 2000]). Patients were taken off protocol at the onset of disease progression.

[7] = mice; cited from earlier work
[8] = human, 30 mg day^−1, first treatment course, mean, N=3
[9] = human, 60 mg day^−1, first treatment course, mean, N=4
[10] = human, 120 mg day^−1, first treatment course, mean, N=8
[11] = human, 150 mg day^−1, first treatment course, mean, N=3
[12] = human, 180 mg day^−1, first treatment course, mean, N=3

For `COc1cccc2c1ccc1nc3cccc(C(=O)N[C@H](C)CN(C)C)c3nc12` [XR11576, 4-methoxy-benzo[a]phenazine-11-carboxylic acid (2-dimethulamino-1-R-methyl-ethyl)-amide], the “reduction in the systemic exposure” value ([1]; repeated daily oral doses) is given as “approximately 60%”, the “increase of systemic exposure with dose” value ([1]; single oral administration) is given as “more than dose-proportionally” and the “activity against resistant cells” value [2] is given as “active”. For the same molecule, the “activity against xenografts in vivo” value [3] was “highly active”, the “R0 (ratio of accumulation)” value ([4]; 30 mg day^−1, first treatment course, mean, N=3) was 1.56 and the “R0 (ratio of accumulation)” value ([4]; 60 mg day^−1, first treatment course, mean, N=4) was 1.87. The “R0 (ratio of accumulation)” value ([4]; 120 mg day^−1, first treatment course, mean, N=8) was 1.93, the “R0 (ratio of accumulation)” value ([4]; 150 mg day^−1, first treatment course, mean, N=3) was 1.53 and the “R0 (ratio of accumulation)” value ([4]; 180 mg day^−1, first treatment course, mean, N=3) was 1.34. For the same molecule, the “increase of systemic exposure with dose” value ([4]; 30–180 mg day^−1) was “greater than dose-proportional”, the “time of maximum peak drug levels post dose” value ([4]; all patients) was 3.69 ± 0.79 h and the “accumulation in plasma: exposure higher by the last day of dosing” value ([4]; days 1–5 dosing) was “approximately two-fold”. The “interpatient coefficients of variation in AUC values” ([4]; human, in vivo) was over 100%, the “relationship between apparent CL/F and BSA” value ([4]; human, in vivo) was “no relationship” and the AUC(0-inf) [4, 8] was 50 ng·h/mL. For the same molecule, the AUC(0-t) [4, 8] was 36.2 ng·h/mL, the Cmax [4, 8] was 8.07 ng/mL and the Tmax [4, 8] was 2.5 h. The half-life ([4]; human, 30 mg day^−1, first treatment course, mean, N=3, read-out: T1/2 (converted)) was 5.53 h, the AUC(0-inf) [4, 9] was 517 ng·h/mL and the AUC(0-t) [4, 9] was 178 ng·h/mL. For the same molecule, the Cmax [4, 9] was 21.7 ng/mL, the Tmax [4, 9] was 3.5 h and the half-life ([4]; human, 60 mg day^−1, first treatment course, mean, N=4, read-out: T1/2 (converted)) was 68.8 h. The AUC(0-inf) [4, 10] was 535 ng·h/mL, the AUC(0-t) [4, 10] was 329 ng·h/mL and the Cmax [4, 10] was 41.1 ng/mL. It also gave a Tmax [4, 10] of 3.75 h, a half-life ([4]; human, 120 mg day^−1, first treatment course, mean, N=8, read-out: T1/2 (converted)) of 31.2 h and an AUC(0-inf) [4, 11] of 2240 ng·h/mL. It also gave an AUC(0-t) [4, 11] of 1710 ng·h/mL, a Cmax [4, 11] of 167 ng/mL and a Tmax [4, 11] of 4 h. It also gave an AUC(0-inf) [4, 12] of 1810 ng·h/mL, an AUC(0-t) [4, 12] of 970 ng·h/mL and a Cmax [4, 12] of 112 ng/mL. The Tmax [4, 12] was 4.67 h, the half-life ([4]; human, all dose levels, read-out: mean terminal half-life) was at most 70 h and the “maximum tolerated dose (MTD)” value (rats) was 150 mg m^−2. For the same molecule, the oral availability [5] was 54±32%, the “maximum tolerated dose (MTD)” value (dogs; 8/9-day oral administration schedule) was 200 mg m^−2 and the toxicities observed (dogs; i.v. doses repeatedly administered) was “myocarditis and nephritis”. For the same molecule, the cardiac toxicity [6] was “no cardiac toxicity was detected”, the objective responses (advanced solid tumours; 21 assessable patients) was “No objective responses” and the “stable disease, median duration” value (advanced solid tumours; in vivo) was 12 weeks. For the same molecule, the “stable disease, range of duration” value (advanced solid tumours; in vivo) was 12–30 weeks, the “patients with stabilisation of disease” value (advanced solid tumours; melanoma, cervical cancer and parotid cancer) was “Four patients” and the “effect of food on bioavailability” value [7] was “food reduced the bioavailability”. The oral availability [7] was 72±25%.

— PMC2409936, “Phase I and pharmacokinetic study of XR11576, an oral topoisomerase I and II inhibitor, administered on days 1–5 of a 3-weekly cycle in patients with advanced solid tumours” (British Journal of Cancer, 2004)
